The values below are quoted from earlier work in patent publication US6514973B1, “Compositions for the treatment and prevention of neurological and pathopsychological diseases” (Merck Patent Geseilschaft Mit Beschrankter Haftung, priority 1998, dated 2003).

Turning to Phosphatidylserines, the “time until appearance in the blood after oral administration” value is reported as “about 30 minutes”.
